According to patent US11638401B2, “Methods and compositions for increasing tolerance to abiotic stress in plants” (priority 2018, dated 2023):

How the values were obtained:
Soybean [1] = assay: Soybean - Two Year Summary, field trials; type: in vivo; conditions: Photon 8 g ai/A, Aminoguanidine 2 g ai/A, control 38.9, LSD 0.01 3.9
Text: (§1) In the table below, the treatment labeled “Photon” represents a mixture of azelaic, sebacic, undecanedioic, acids. It is predominantly azelaic acid, and equal parts of the remaining two major constituents. Abbreviations: ai=active ingredient, A=acre, ha=hectare, lbs=pounds, MT=metric ton • Soybean Trial 2018 • Elm City N.C. • Randomized complete block with 5 replicates

Soybean [2] = assay: Soybean Trial 2018, field trial; type: in vivo; conditions: Soybean 2018, Elm City N.C.; Photon 8 g ai/A, Aminoguanidine 2 g ai/A; control 22.3; LSD 0.05 3.8
Text: as §1

N=C(N)NN [Aminoguanidine, aminoguanidine]
Yield (bu/A) (Soybean [1]): 42.5 bu/A | Yield (bu/A) (Soybean [2]): 24.3 bu/A
